Values of other authors in article PMC8513935.

Key:
[1] = derived by the authors as gas->solvent minus gas->water (a hypothetical dry solvent; the ESI), not a two-phase measurement; settings: Hexadecane, 25 C
[2] = experimental, compiled by the authors from the literature (the ESI cites the sources)

SMILES	log K of transfer, gas to solvent ([2]; Hexadecane, 25 C) [log10 K]	log K of transfer, gas to solvent ([2]; Water, 25 C) [log10 K]	further results
CCCCCCCN	4.15	2.78	log K of transfer, water to solvent [1]: 1.37 log10 K
CCCCCF	2.44	-0.21	log K of transfer, water to solvent [1]: 2.65 log10 K
C=CCCCCCCCCC	5.02	-1.75	
CCCCCCCCCCCO	6.12	2.5	log K of transfer, gas to solvent ([2]; Decan-1-ol, 25 C): 7.53 log10 K
C[C@@H]1CCCC[C@@H]1C	3.85	-1.17	
COC1CCCCC1	3.86	2.43	
CC(C)F	1.15	-0.364	
CN1CCCCC1=O	3.97	4.91	
CNC=O	2.86	6.57	log K of transfer, gas to solvent ([2]; Propanone, 25 C): 5.39 log10 K
CCCCCCCCCCCCCCCCCCCO	10.2	1.66	
CCCF	1.25	-0.24	
CCCCCCCCCCCCCCO	7.63	2.26	log K of transfer, gas to solvent ([2]; Decan-1-ol, 25 C): 8.88 log10 K; log K of transfer, gas to solvent ([2]; Hexan-1-ol, 25 C): 8.94 log10 K; log K of transfer, gas to solvent ([2]; Propan-2-ol, 25 C): 9.05 log10 K
C=CCCCCCCCCCC	5.51	-1.87	
CCCC(C)CC (centres unmarked)	3.04	-1.99	
Cc1ccncc1C	4.31	3.83	
C[C@H]1CC[C@H](C)CC1	3.64	-1.4	
CCCCCCCC(C)C	4.45	-2.27	
CCCC(=O)CC	3.27	2.41	
CC1CCCCN1 (centres unmarked)	3.23	3.15	
CC1CCNCC1	3.23	3.15	
OC1CCCCCCC1	5.05	3.81	
O=C1CCCCCC1	4.37	3.42	

SMILES	log K of transfer, gas to solvent ([2]; Hexadecane, 25 C) [log10 K]	log K of transfer, gas to solvent ([2]; Water, 25 C) [log10 K]	further results
CN1CCCC1=O	3.83	5.74	
Fc1ccc(Cl)cc1	3.55	0.63	
Oc1ccc(F)cc1	3.84	4.54	log K of transfer, gas to solvent ([2]; 1,2-Dichloroethane, 25 C): 5.25 log10 K; log K of transfer, gas to solvent ([2]; CCl4, 25 C): 4.28 log10 K
CCCCCCC(C)C	3.96	-2.15	
CSC	2.04	1.18	log K of transfer, gas to solvent ([2]; Hexane, 25 C): 2.17 log10 K
CCCC(C)(C)O	3.24	3.25	
Cc1ccnc(C)c1	4	3.57	
CCCCNC(C)=O	4.58	6.57	
Fc1cccc(Cl)c1	3.53	0.65	
Fc1ccccc1Cl	3.64	0.72	
CCCCC1CCCCC1	4.8	-1.44	
CCCCCCCCCCCCCCCCCO	9.16	1.9	
CCCCCC1CCCC1	4.6	-1.87	
CCOC	1.59	1.54	
CCCCC(C)CC (centres unmarked)	3.51	-2.18	
N	0.319	3.19	log K of transfer, gas to solvent ([2]; 2-Methylpropan-1-ol, 25 C): 1.86 log10 K; log K of transfer, gas to solvent ([2]; Butan-1-ol, 25 C): 1.76 log10 K; log K of transfer, gas to solvent ([2]; Butanone, 25 C): 1.42 log10 K; log K of transfer, gas to solvent ([2]; CCl4, 25 C): 0.79 log10 K; log K of transfer, gas to solvent ([2]; Chlorobenzene, 25 C): 0.999 log10 K; log K of transfer, gas to solvent ([2]; Chloroform, 25 C): 1.77 log10 K; log K of transfer, gas to solvent ([2]; Ethanol, 25 C): 2.01 log10 K; log K of transfer, gas to solvent ([2]; Methanol, 25 C): 2.26 log10 K; log K of transfer, gas to solvent ([2]; Propan-1-ol, 25 C): 1.76 log10 K; log K of transfer, gas to solvent ([2]; Propan-2-ol, 25 C): 1.74 log10 K; log K of transfer, gas to solvent ([2]; Propanone, 25 C): 1.48 log10 K
CCCCN(C=O)CCCC	5.62	4.34	
C1CCCCCCC1	4.33	-0.63	
OC1CCCC1	3.24	4.03	log K of transfer, gas to solvent ([2]; Propanone, 25 C): 4.6 log10 K
CCCSCCC	4.01	0.94	
CCCN	2.14	3.22	log K of transfer, gas to solvent ([2]; 1,2-Dichloroethane, 25 C): 2.96 log10 K; log K of transfer, gas to solvent ([2]; Benzene, 25 C): 2.7 log10 K; log K of transfer, gas to solvent ([2]; CCl4, 25 C): 2.63 log10 K; log K of transfer, gas to solvent ([2]; Chlorobenzene, 25 C): 2.63 log10 K; log K of transfer, gas to solvent ([2]; Chloroform, 25 C): 3.47 log10 K; log K of transfer, gas to solvent ([2]; Cyclohexane, 25 C): 2.24 log10 K; log K of transfer, gas to solvent ([2]; Di-n-butyl ether, 25 C): 2.14 log10 K; log K of transfer, gas to solvent ([2]; Hexane, 25 C): 2.26 log10 K; log K of transfer, gas to solvent ([2]; Toluene, 25 C): 2.57 log10 K
Cc1cccnc1C	4.04	3.54	

SMILES	log K of transfer, gas to solvent ([2]; Hexadecane, 25 C) [log10 K]	log K of transfer, gas to solvent ([2]; Water, 25 C) [log10 K]	further results
O=C1CCCCCCC1	4.98	3.38	
CC(C)CCC(C)(C)C	3.57	-2.15	
Cc1ccc(C)nc1	3.98	3.46	
CC(=O)C1CCCCC1	4.62	3.28	
CC1CCCCC1=O (centres unmarked)	4.05	3.07	
C1C2CC3CC1CC(C2)C3	4.93	0.12	
CCCC(C)(C)C	2.79	-2.11	
CC1CCCNC1 (centres unmarked)	3.23	3.16	
CCCCCCCCN	4.6	2.68	
CCCCCCCCCCCCCO	7.13	2.38	
CCCC1CCCCC1	4.31	-1.32	
CCCCC(C)(C)O	3.68	3.06	
CC(=O)CC(C)C	3.09	2.24	
CCF	0.751	-0.3	log K of transfer, gas to solvent ([2]; Tetrahydrofuran, 25 C): 1.31 log10 K
CC(C)(C)C1CCCCC1	4.6	-1.28	
C=CCCCCCCCC	4.53	-1.64	
C1CCSC1	3.06	1.66	
CCNC(C)=O	3.84	6.72	
CCCCCCCCCCCCCCCO	8.14	2.14	log K of transfer, gas to solvent ([2]; Di-n-butyl ether, 25 C): 9.07 log10 K
OC1CCCCCC1	4.4	4.02	
